Test results: US20230124492A1, “COMPOSITIONS AND METHODS FOR SUBSTITUTED 7-(PIPERAZIN-1-YL)PYRAZOLO[1,5-A]PYRIMIDINE ANALOGS AS INHIBITORS OF KRAS” (The Board of Regents of the University of Texas System, priority 2019, published 2023)

Columns and labels:
WT KRAS [1] = target: T1, WT KRAS (Homo sapiens, UniProt P01116); experiment: SOS-mediated nucleotide exchange assay, WT KRAS; format: biochemical; settings: for SOS-mediated nucleotide exchange WT, single-dose test (effect / No effect): 25 microMolar ligand; for EC50: SOS-mediated nucleotide exchange, dose-response
T1 sequence (P01116 1-188 isoform P01116-2): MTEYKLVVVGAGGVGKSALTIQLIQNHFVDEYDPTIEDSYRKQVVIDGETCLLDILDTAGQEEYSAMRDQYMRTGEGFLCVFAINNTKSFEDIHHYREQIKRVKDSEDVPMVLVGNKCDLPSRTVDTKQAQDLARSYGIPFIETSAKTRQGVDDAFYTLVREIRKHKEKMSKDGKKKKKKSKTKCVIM
Protocol: (§1) In other experiments, the compounds disclosed herein can be tested for their abilities to affect rates of intrinsic and SOS-catalyzed nucleotide exchange and release. These assays use fluorescently-labeled BODIPY-GDP (BGDP) and BODIPY-GTP (BGTP), which have increased fluorescence intensity when bound to KRAS. Rate of nucleotide exchange is determined by rate of increase in fluorescence after BGTP is added to GDP-KRAS in the absence or presence of SOS Rate of nucleotide release is determined from rate of decrease in, fluorescence when excess GTP is added to KRAS loaded with BGDP in the presence or absence of SOS, where SOS is “Sons of Sevenless” referring to a set of genes encoding guanine nucleotide exchange factors.
(§2) Solutions of ligand (0 to 50 μM) are mixed with equal volumes of KRAS (fixed concentration) and fluorescence spectra are obtained. The difference spectra (between KRAS-ligand mixture and ligand alone) are plotted and the area under the curve is obtained. Kd is estimated from the plot of area versus the ligand concentration. SOS-mediated nucleotide rate was monitored using the fluorescence intensity increase of BODIPY-GTP (B GTP) as it displaces GDP from KRAS. The reaction mixture (100 μL, 96 well plate) contained 0.5 μM K-Ras-GDP, 0.5 μm B-GTP, 0.5 μM SOS and varying concentrations of ligands (0 to 25 μM). B-GTP and SOS mixture was added just before measurements(excitation: 485 nm, emission: 510 nm; TECAN Infinite 200 plate reader). The reaction was monitored for 1 hour. The experiments were conducted with minimal light, Fluorescence intensities were normalized with respect to the value obtained at 120 s and the traces were fit with exponential function (Igor Pro, Wavemetrics).

WT KRAS [2] = target: T1, WT KRAS; experiment: Intrinsic nucleotide exchange assay, WT KRAS; format: biochemical; settings: for Intrinsic nucleotide exchange WT, single-dose test (effect / No effect): 25 microMolar ligand; for EC50: intrinsic nucleotide exchange, dose-response
Protocol: as §1

wild type (WT) KRAS = wild type (WT) KRAS (Homo sapiens, UniProt P01116); experiment: Intrinsic fluorescence (IF) binding affinity, WT KRAS bound to GNP
wild type (WT) KRAS, sequence (P01116 1-188 isoform P01116-2): as above
Protocol: (§3) FIGS. 2A-I illustrates the measurements of binding affinity of ligands to wild type (WT) or […] KRAS bound to the GTP analogue GNP and, for selected exemplary embodiments, effect of ligands on the rate of SOS-mediated nucleotide exchange reaction. Binding affinity was determined using intrinsic fluorescence, which made use of the ligands' intrinsic fluorescence and the accompanying change (decrease or increase in intensity) upon binding to KRAS.
(§4) FIGS. 2A-I illustrates the measurements of binding affinity of ligands to wild type (WT) or G12D KRAS bound to the GTP analogue GNP and, for selected exemplary embodiments, effect of ligands on the rate of SOS-mediated nucleotide exchange reaction, Binding affinity was determined using intrinsic fluorescence, which made use of the ligands' intrinsic fluorescence and the accompanying change (decrease or increase in intensity) upon binding to KRAS.
as §2
(§5) Note: For FIGS. 1A-H 1 (as well as one of the curves in FIGS. 2A-I), dissociation constant (Kd) was determined using either Microscale Thermophoresis (MST) or Intrinsic Fluorescence (IF) assay. MST assay uses fluorescence to monitor movement of molecules in response to temperature gradient created by infrared laser.

G12D KRAS [3] = target: T2, G12D KRAS (Homo sapiens, UniProt P01116, G12D); experiment: Intrinsic fluorescence (IF) binding affinity, G12D KRAS bound to GNP
T2 sequence (P01116 1-188 isoform P01116-2 G12D): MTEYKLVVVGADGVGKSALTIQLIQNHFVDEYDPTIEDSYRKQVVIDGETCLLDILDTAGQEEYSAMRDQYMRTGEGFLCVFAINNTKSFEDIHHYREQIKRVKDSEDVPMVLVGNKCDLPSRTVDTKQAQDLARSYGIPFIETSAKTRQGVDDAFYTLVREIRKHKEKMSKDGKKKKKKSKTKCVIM
Protocol: as §3, §4, §2, §5

G12D KRAS [4] = target: T2, G12D KRAS; experiment: Microscale thermophoresis (MST) Kd, G12D KRAS; format: binding
Protocol: (§6) Measurement of compound binding affinity to KKRAS using microscale thermophoresis (MST). MST is based on the movement of molecules in response to temperature gradient. […] KRAS was buffer-exchanged in the labeling buffer (40 mM HEPES, pH 7.5, 5 mM MgCl2, and 500 mM NaCl) using a spin column (provided in the kit) The concentration of the eluted protein was adjusted (10 to 20 μM) and 2-3 fold concentration of the dye (in labeling buffer) was added (200 μL final volume), The solution was incubated for 30 minutes at room temperature in the dark. Labeled KRAS was purified using the column provided in the kit or MST measurements, 16 point serial dilutions of ligands were made in MST Assay Buffer (40 mM HEPES, pH 7.5, 5 mM MgCl2, 100 mM NaCl+0.05% Tween-20+2-4% DMSO) and added to 100 nM KRAS. The solutions were loaded in capillaries and measurements were done using 20% LED power and 40% MST power. The data were fit in Igor Pro using Hill equation or the function in the instrument software.
(§7) Microscale thermophoresis (MST) assays were used to measure the affinity of lead compound analogs for KRAS. In a typical experiment, 100 nM KRAS labeled with a dye amine-reactive red NT-647 from NanoTemper) was mixed with different concentrations of ligand and incubated in a binding buffer (40 mM HEPES, pH 7.5, 5 mM MgCl2, 150 mM NaCl, 0.05% polysorbate 20, and 2% DMSO) at room temperature for 10 min before being loaded into a capillary. Thermophoresis is carried out and dissociation constant calculated by monitoring changes in fluorescence intensity. A monolith NT.115 Reader from NanoTemper can be used for MST experiments, with 40% MST and 20% LED power.
as §5

KRAS = KRAS (Homo sapiens, UniProt P01116, G12D); experiment: Microscale thermophoresis (MST) binding affinity to KRAS (Table 1); settings: 100 nM labeled KRAS, read-out: kD (dissociation constant)
KRAS, sequence (P01116 whole entry G12D): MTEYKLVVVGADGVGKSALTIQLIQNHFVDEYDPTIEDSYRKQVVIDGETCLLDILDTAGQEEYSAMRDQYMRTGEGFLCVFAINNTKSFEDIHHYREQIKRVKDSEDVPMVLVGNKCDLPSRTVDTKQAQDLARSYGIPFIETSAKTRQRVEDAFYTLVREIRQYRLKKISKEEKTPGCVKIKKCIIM
Protocol: as §6, §7
Dissociation constants (IQ)) calculated from the thermophoresis results of selected compounds according to the present disclosure are presented in Table 1 below.
as §5

Structure (SMILES)	SOS-mediated nucleotide exchange WT, single-dose test (effect / No effect) (WT KRAS [1])	Kd (wild type (WT) KRAS)	Kd (G12D KRAS [3])	other results
OCCN1CCN(c2cc(-c3ccccc3)nc3c(-c4ccccc4)c(C(F)(F)F)nn23)CC1 [C32″]	effect in single- dose @ 25 uM			Intrinsic nucleotide exchange WT, single-dose test (effect / No effect) (WT KRAS [2]): effect in single- dose @ 25 uM
Cc1nn2c(N3CCN(CCO)CC3)cc(-c3ccccc3)nc2c1-c1ccc(O)cc1 [C31″]	No effect in single dose @ 25 uM			Intrinsic nucleotide exchange WT, single-dose test (effect / No effect) (WT KRAS [2]): No effect in single dose @ 25 uM
Cc1nn2c(N3CCN(CCO)CC3)cc(-c3ccccc3)nc2c1-c1cc(F)cc(F)c1 [C28″]	No effect in single dose @ 25 uM	21.7 ± 0.4 µM	23.5 ± 0.8 µM	Intrinsic nucleotide exchange WT, single-dose test (effect / No effect) (WT KRAS [2]): effect in single- dose @ 25 uM
Cc1cc(N2CCN(CCO)CC2)n2nc(C)c(-c3ccccc3)c2n1 [C13″]				EC50 (WT KRAS [1]): 57.8 ± 4 µM; EC50 (WT KRAS [2]): 28.8 ± 4 µM
OCCN1CCN(c2cc(-c3ccccc3)nc3c(-c4ccccc4)c(C4CC4)nn23)CC1 [C29″]	effect in single- dose @ 25 uM			
COc1ccc(-c2cc(N3CCN(CCO)CC3)n3nc(C)c(-c4ccccc4)c3n2)cc1 [C25″]	effect in single- dose @ 25 uM			
Cc1nn2c(NCCCN(C)C)cc(-c3ccccc3)nc2c1-c1ccccc1 [Compound C45]		28.3 ± 5.4 µM		
OCCN1CCN(c2cc(-c3ccccc3)nc3c(-c4ccccc4)c(-c4cc[nH]c4)nn23)CC1 [Compound C36]		20.6 ± 0.4 µM	22.4 ± 8 µM	
Cc1cc2nc(-c3ccccc3)cc(N3CCN(CCO)CC3)n2n1 [Compound C44]		5 to 15 µM		
Cc1nn2c(N3CCN(CCO)CC3)cc(-c3cc(O)cc(O)c3)nc2c1-c1ccccc1 [C35″]	No effect in single dose @ 25 uM	8.4 ± 0.2 µM	21.6 ± 4 µM	Intrinsic nucleotide exchange WT, single-dose test (effect / No effect) (WT KRAS [2]): effect in single- dose @ 25 uM
Cc1nn2c(N3CCN(CCO)CC3)cc(-c3ccncc3)nc2c1-c1ccccc1 [C22″]	no effect in single dose @ 25 uM			Kd (G12D KRAS [4]): > 100 µM
Cc1nn2c(N3CCN(CCO)CC3)nc(-c3ccccc3)nc2c1-c1ccccc1 [Compound C41]		~20 µM		EC50 (WT KRAS [2]): 15 to 25 µM
Cc1nn2c(N3CCC(CCO)CC3)cc(-c3ccc(F)cc3)nc2c1-c1ccccc1 [Compound C39]		39.5 ± 1.9 µM	22.9 ± 2.2 µM	
OCCN1CCN(c2cc(-c3ccccc3)nc3c(-c4ccccc4)c(-c4ccccc4)nn23)CC1 [C14″]		12.3 ± 0.1 µM	11.2 ± 0.2 µM	EC50 (WT KRAS [2]): 12.4 ± 4.8 µM; Kd (G12D KRAS [4]): 0.88 ± 0.4 µM
Cc1nn2c(NCCN(C)C)cc(-c3ccccc3)nc2c1-c1ccccc1 [Compound C15]				Kd (G12D KRAS [4]): 0.99 ± 0.1 µM
Cc1nn2c(N3CCN(CCO)CC3)cc(-c3ccc(F)cc3)nc2c1-c1ccccc1 [C21″]		4.6 ± 0.2 µM	6.8 ± 0.5 µM	EC50 (WT KRAS [1]): 18.8 ± 3.3 µM; EC50 (WT KRAS [2]): 34 ± 6.4 µM; Kd (G12D KRAS [4]): 0.52 ± 0.2 µM
CCOC(=O)N1CCN(c2cc(-c3ccccc3)nc3c(-c4ccccc4)c(C)nn23)CC1 [C27″]	no effect in single dose @ 25 uM			

Structure (SMILES)	SOS-mediated nucleotide exchange WT, single-dose test (effect / No effect) (WT KRAS [1])	Kd (wild type (WT) KRAS)	Kd (G12D KRAS [3])	other results
Cc1nn2c(N3CCN(CCO)CC3)cc(-c3ccc(O)cc3)nc2c1-c1ccccc1 [C30″]		12.2 ± 0.4 µM	18.4 ± 10 µM	EC50 (WT KRAS [1]): 15.9 ± 3.4 µM
COCCN1CCN(c2cc(-c3ccccc3)nc3c(-c4ccccc4)c(C)nn23)CC1 [Compound C6]				Kd (KRAS): > 76 µM
COc1ccccc1N1CCN(c2cc(-c3ccccc3)nc3c(-c4ccccc4)c(C)nn23)CC1 [Compound C7]				Kd (KRAS): > 86 µM
Cc1nn2c(N3CCC(CCO)CC3)cc(-c3ccccc3)nc2c1-c1ccccc1 [Compound C40]		63.1 ± 5.3 µM	25.7 ± 0.2 µM	
Cc1nn2c(N3CCN(CCO)CC3)cc(-c3nccn3C)nc2c1-c1ccccc1 [C23″]	effect in single- dose @ 25 uM			Intrinsic nucleotide exchange WT, single-dose test (effect / No effect) (WT KRAS [2]): effect in single- dose @ 25 uM; Kd (G12D KRAS [4]): > 200 µM
Cc1cc(NCCN(C)C)n2nc(C)c(-c3ccccc3)c2n1 [Compound C16]				Kd (G12D KRAS [4]): > 200 µM
COc1ccc(-c2nn3c(N4CCN(CCO)CC4)cc(-c4ccccc4)nc3c2-c2ccccc2)cc1 [Compound C37]		22.6 ± 0.3 µM	11.8 ± 0.2 µM	
Cc1nn2c(N3CCN(CCO)CC3)cc(-c3ccccc3)nc2c1-c1ccccc1 [C11″]			4.54 ± 0.1 µM	Kd (G12D KRAS [4]): 0.87 ± 0.1 µM
OCCN1CCN(c2cc(-c3ccccc3)nc3c(-c4ccccc4)c(-c4ccccc4)nn23)CC1 [Compound C3]				Kd (KRAS): 0.88 ± 0.36 µM
COc1ccccc1N1CCN(c2cc(-c3ccccc3)nc3c(-c4ccccc4)c(C)nn23)CC1 [Compound C18]				Kd (G12D KRAS [4]): > 86 µM
CCc1nn2c(N3CCN(CCO)CC3)cc(-c3ccccc3)nc2c1-c1ccccc1 [C26″]	effect in single- dose @ 25 uM			Intrinsic nucleotide exchange WT, single-dose test (effect / No effect) (WT KRAS [2]): effect in single- dose @ 25 uM
COCc1nn2c(N3CCN(CCO)CC3)cc(-c3ccccc3)nc2c1-c1ccccc1 [Compound C43]		5 to 15 µM		
OCCN1CCN(c2cc(-c3ccccc3)nc3c(-c4ccccc4)c(-c4ccc(O)cc4)nn23)CC1 [Compound C38]		19.1 ± 0.1 µM	63.1 ± 5.3 µM	
Cc1nn2c(NCCN(C)C)cc(-c3ccccc3)nc2c1-c1ccccc1 [Compound C4]				Kd (KRAS): 0.99 ± 0.14 µM
Cc1nn2c(N3CCN(CCO)CC3)cc(-c3cc(F)cc(F)c3)nc2c1-c1ccccc1 [C33″]	No effect in single dose @ 25 uM		79 ± 78 µM	Intrinsic nucleotide exchange WT, single-dose test (effect / No effect) (WT KRAS [2]): effect in single- dose @ 25 uM
COCCN1CCN(c2cc(-c3ccccc3)nc3c(-c4ccccc4)c(C)nn23)CC1 [C17″]				Kd (G12D KRAS [4]): > 76 µM
